Experimental data as given in EP0674651B1, “SUBSTITUTED 6-AZAANDROSTENONES” (priority 1992, dated 1994).

Columns and labels:
[1] = target: T1, human type 1 5α-reductase (Homo sapiens, UniProt P18405); assay: 5α-reductase in vitro inhibitory activity, human type 1
T1 sequence (P18405 1-259): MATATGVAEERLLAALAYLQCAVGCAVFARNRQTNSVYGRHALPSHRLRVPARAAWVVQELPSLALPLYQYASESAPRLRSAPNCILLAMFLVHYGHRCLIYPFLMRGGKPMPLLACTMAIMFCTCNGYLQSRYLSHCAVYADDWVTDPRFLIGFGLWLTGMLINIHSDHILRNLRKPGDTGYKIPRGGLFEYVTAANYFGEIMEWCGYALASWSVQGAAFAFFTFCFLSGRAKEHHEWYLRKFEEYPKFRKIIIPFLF
Description: Microsomes were prepared by homogenization of the tissue or cells, followed by differential centrifugation of the homogenate. […] Corresponding incubations were carried out with no test compound as a control study.
For type 2 IC50 measurements, assay components except testosterone were preincubated for 20 minutes at pH 6.0, and following the addition of 8nM testosterone the assays were allowed to proceed for 20-40 minutes. The percentage of conversion of testosterone to DHT in the presence of test compounds compared to the corresponding conversion in the control study was estimated using high pressure liquid chromatography (HPLC) with radiochemical detection.

[2] = target: T2, human type 2 5α-reductase (Homo sapiens, UniProt P31213); assay: 5α-reductase in vitro inhibitory activity, human type 2
T2 sequence (P31213 1-254): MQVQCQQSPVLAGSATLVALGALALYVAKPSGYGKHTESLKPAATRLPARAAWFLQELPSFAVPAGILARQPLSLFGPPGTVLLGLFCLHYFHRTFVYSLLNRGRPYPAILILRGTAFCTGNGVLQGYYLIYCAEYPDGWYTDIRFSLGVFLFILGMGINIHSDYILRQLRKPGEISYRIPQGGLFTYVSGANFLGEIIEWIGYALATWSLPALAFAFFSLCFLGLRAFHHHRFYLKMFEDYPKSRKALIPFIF

Row | SMILES | IC50 [1] [nM] | IC50 [2] [nM]
1 | C[C@]12CC[C@H]3[C@@H](CNC4=CC(=O)CC[C@@]43C)[C@@H]1CC[C@@H]2C(=O)Nc1cc(C(F)(F)F)ccc1-c1ccccc1 [Compound 112, 17β-N-(2-Phenyl-5-trifluoromethyl)phenyl-carbamoyl-6-azaandrost-4-en-3-one] | 10 to 100 | < 10
2 | COc1cc(Cl)cc(NC(=O)[C@H]2CC[C@H]3[C@@H]4CNC5=CC(=O)CC[C@]5(C)[C@H]4CC[C@]23C)c1 [Compound 113, 17β-N-(3-Methoxy-5-chloro)phenyl-carbamoyl-6-azaandrost-4-en-3-one] | 10 to 100 | < 10
3 | CCOC(=O)c1ccccc1NC(=O)[C@H]1CC[C@H]2[C@@H]3CNC4=CC(=O)CC[C@]4(C)[C@H]3CC[C@]12C [Compound 114, 17β-N-(2-Carboethoxy)phenyl-carbamoyl-6-azaandrost-4-en-3-one] | 10 to 100 | < 10
4 | COc1ccc(C2(NC(=O)[C@H]3CC[C@H]4[C@@H]5CNC6=CC(=O)CC[C@]6(C)[C@H]5CC[C@]34C)CCCC2)cc1 [Compound 115, 17β-N-1-(4-Methoxyphenyl)cyclopentyl-carbamoyl-6-azaandrost-4-en-3-one] | < 10 | < 10
5 | CC1=C2NC[C@H]3[C@@H]4CC[C@H](C(=O)Nc5cc(C(F)(F)F)ccc5C(F)(F)F)[C@@]4(C)CC[C@@H]3[C@@]2(C)CCC1=O [Compound 116, 17β-N-(2,5-bis(Trifluoromethyl))phenyl-carbamoyl-6-azaandrost-4-methyl-4-en-3-one] | < 10 | < 10
6 | CC1=C2NC[C@H]3[C@@H]4CC[C@H](C(=O)Nc5cc(C(F)(F)F)ccc5C(C)(C)C)[C@@]4(C)CC[C@@H]3[C@@]2(C)CCC1=O [Compound 117, 17β-N-(2-t-Butyl-5-trifluoromethyl)phenyl-carbamoyl-6-azaandrost-4-methyl-4-en-3-one] | < 10 | < 10
7 | CC1=C2NC[C@H]3[C@@H]4CC[C@H](C(=O)Nc5cc(C(C)(C)C)ccc5C(C)(C)C)[C@@]4(C)CC[C@@H]3[C@@]2(C)CCC1=O [Compound 118, 17β-N-(2,5-Di-t-butyl)phenyl-carbamoyl-6-azaandrost-4-methyl-4-en-3-one] | < 10 | < 10
8 | CCOc1ccc(OCC)c(NC(=O)[C@H]2CC[C@H]3[C@@H]4CNC5=CC(=O)CC[C@]5(C)[C@H]4CC[C@]23C)c1 [Compound 119, 17β-N-(2,5-Diethoxy)phenyl-carbamoyl-6-azaandrost-4-en-3-one] | 10 to 100 | < 10
9 | CC(C)(C)c1ccc(-c2ccc(Cl)cc2)cc1NC(=O)[C@H]1CC[C@H]2[C@@H]3CNC4=CC(=O)CC[C@]4(C)[C@H]3CC[C@]12C [Compound 120, 17β-N-(2-t-Butyl-5-(4-chlorophenyl))phenyl-carbamoyl-6-azaandrost-4-en-3-one] | < 10 | < 10
10 | CC(C)(C)c1ccc(C2(NC(=O)[C@H]3CC[C@H]4[C@@H]5CNC6=CC(=O)CC[C@]6(C)[C@H]5CC[C@]34C)CCCC2)cc1 [Compound 121, 17β-N-1-(4-t-Butylphenyl)cyclopentyl-carbamoyl-6-azaandrost-4-en-3-one] | < 10 | < 10
11 | CC(C)(C)c1ccc(C2(NC(=O)[C@H]3CC[C@H]4[C@@H]5CNC6=CC(=O)CC[C@]6(C)[C@H]5CC[C@]34C)CCCCC2)cc1 [Compound 122, 17β-N-1-(4-t-Butylphenyl)cyclohexyl-carbamoyl-6-azaandrost-4-en-3-one] | < 10 | < 10
12 | C[C@]12CC[C@H]3[C@@H](CNC4=CC(=O)CC[C@@]43C)[C@@H]1CC[C@@H]2C(=O)Nc1ccccc1C(=O)c1ccccc1 [Compound 123, 17β-N-(2-Benzoyl)phenyl-carbamoyl-6-azaandrost-4-en-3-one] | 10 to 100 | < 10
13 | C[C@]12CC[C@H]3[C@@H](CNC4=CC(=O)CC[C@@]43C)[C@@H]1CC[C@@H]2C(=O)NC1(c2ccc3c(c2)OCO3)CCCCC1 [Compound 124, 17β-N-1-(3,4-Methylenedioxyphenyl)cyclohexyl-carbamoyl-6-azaandrost-4-en-3-one] | 10 to 100 | < 10
